From PubChem BioAssay (NCI)
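Briefly, cells in 96-well plates were exposed to five compound concentrations for 48 h, and endpoints were estimated by linear interpolation. Abbreviation: GI50, concentration required for 50% inhibition of growth. Definition used: TGI = concentration required for complete inhibition of growth.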

What was measured:
Assay in all cases: inhibition of tumour cell growth, NCI panel, 48 h
SN12C renal = test system: SN12C renal
HL-60(TB) leukemia = test system: HL-60(TB) leukemia
CCRF-CEM leukemia = test system: CCRF-CEM leukemia
HOP-92 NSCLC = test system: HOP-92 NSCLC
NCI-H460 lung = test system: NCI-H460 lung
SK-MEL-28 melanoma = test system: SK-MEL-28 melanoma
OVCAR-4 ovarian = test system: OVCAR-4 ovarian
SK-OV-3 ovarian = test system: SK-OV-3 ovarian
KM12 colon = test system: KM12 colon
HOP-62 NSCLC = test system: HOP-62 NSCLC

Compound | GI50 (SN12C renal) | TGI (SN12C renal) | GI50 (HL-60(TB) leukemia) | TGI (HL-60(TB) leukemia) | GI50 (CCRF-CEM leukemia) | TGI (CCRF-CEM leukemia) | GI50 (HOP-92 NSCLC) | TGI (HOP-92 NSCLC) | GI50 (NCI-H460 lung) | TGI (NCI-H460 lung) | GI50 (SK-MEL-28 melanoma) | TGI (SK-MEL-28 melanoma) | GI50 (OVCAR-4 ovarian) | TGI (OVCAR-4 ovarian) | GI50 (SK-OV-3 ovarian) | TGI (SK-OV-3 ovarian) | GI50 (KM12 colon) | TGI (KM12 colon) | GI50 (HOP-62 NSCLC) | TGI (HOP-62 NSCLC)
CCN(CC)CCCC(C)Nc1ccnc2cc(Cl)c(SCc3ccccc3)cc12 (stereo unspecified) | 1700 nM | 4070 nM | 1810 nM | 4230 nM | 442 nM | 4940 nM | 1140 nM | 3200 nM | 1770 nM | 4540 nM | 1150 nM | 2410 nM | 1530 nM | 4050 nM | 1930 nM | 3690 nM | 1430 nM | 3960 nM | 1370 nM | 3010 nM
CN(C)CCOc1cccc(NC2=C(Cl)C(=O)C(Nc3cccc(OCCN(C)C)c3)=C(Cl)C2=O)c1 | 427 nM | 886 nM | 751 nM | 2610 nM | 256 nM | 932 nM | 184 nM | 408 nM | 1570 nM | 3270 nM | 1030 nM | 2490 nM | 170 nM | 329 nM | 11300 nM | 23400 nM | 1330 nM | 2920 nM | 2100 nM | 4220 nM
N=C1N=Nc2nc(C3(c4nc5n(c4O)C(=N)N=N5)Cc4ccccc4C3=O)c(O)n21 (stereo unspecified) |  | > 100000 nM |  | > 100000 nM |  | > 100000 nM |  | > 100000 nM |  | > 100000 nM |  | > 100000 nM | > 100000 nM | > 100000 nM |  | > 100000 nM |  | > 100000 nM |  | > 100000 nM
